Laboratory results taken from PubChem BioAssay (NCI).
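Dose response: 5 concentrations. Exposure: 48 h. Format: 96-well plates. Endpoint: linear interpolation; highest concentration if not reached. TGI denotes the concentration required for complete inhibition of growth.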

Columns and labels:
Assay in all cases: NCI anticancer screen, dose series, 48 h
SK-MEL-2 melanoma = tested on: SK-MEL-2 melanoma
U251 CNS = tested on: U251 CNS
NCI-H460 lung = tested on: NCI-H460 lung
MALME-3M melanoma = tested on: MALME-3M melanoma
OVCAR-3 ovarian = tested on: OVCAR-3 ovarian
SF-539 CNS = tested on: SF-539 CNS
RXF 393 renal = tested on: RXF 393 renal
HL-60(TB) leukemia = tested on: HL-60(TB) leukemia
NCI/ADR-RES ovarian = tested on: NCI/ADR-RES ovarian
SF-295 CNS = tested on: SF-295 CNS
HOP-62 NSCLC = tested on: HOP-62 NSCLC
OVCAR-8 ovarian = tested on: OVCAR-8 ovarian
NCI-H226 lung = tested on: NCI-H226 lung
MOLT-4 leukemia = tested on: MOLT-4 leukemia
ACHN renal = tested on: ACHN renal
SR leukemia = tested on: SR leukemia
MDA-MB-231 breast = tested on: MDA-MB-231 breast
SF-268 CNS = tested on: SF-268 CNS
SK-MEL-5 melanoma = tested on: SK-MEL-5 melanoma
MDA-N = tested on: MDA-N
HT29 colon = tested on: HT29 colon
COLO 205 colon = tested on: COLO 205 colon
HCT-116 colon = tested on: HCT-116 colon
SN12C renal = tested on: SN12C renal
NCI-H23 lung = tested on: NCI-H23 lung
HS 578T breast = tested on: HS 578T breast
K-562 leukemia = tested on: K-562 leukemia
LOX IMVI melanoma = tested on: LOX IMVI melanoma
A498 renal = tested on: A498 renal
UO-31 renal = tested on: UO-31 renal
RPMI-8226 leukemia = tested on: RPMI-8226 leukemia
OVCAR-4 ovarian = tested on: OVCAR-4 ovarian
CCRF-CEM leukemia = tested on: CCRF-CEM leukemia
HCC-2998 colon = tested on: HCC-2998 colon
PC-3 prostate = tested on: PC-3 prostate
SK-MEL-28 melanoma = tested on: SK-MEL-28 melanoma
IGROV1 ovarian = tested on: IGROV1 ovarian
HOP-92 NSCLC = tested on: HOP-92 NSCLC
UACC-62 melanoma = tested on: UACC-62 melanoma
SNB-19 CNS = tested on: SNB-19 CNS
MDA-MB-435 = tested on: MDA-MB-435
MCF7 breast = tested on: MCF7 breast
CAKI-1 renal = tested on: CAKI-1 renal
786-0 renal = tested on: 786-0 renal
DU-145 prostate = tested on: DU-145 prostate
KM12 colon = tested on: KM12 colon
OVCAR-5 ovarian = tested on: OVCAR-5 ovarian
T-47D breast = tested on: T-47D breast
UACC-257 melanoma = tested on: UACC-257 melanoma
NCI-H522 lung = tested on: NCI-H522 lung
TK-10 renal = tested on: TK-10 renal
A549 NSCLC = tested on: A549 NSCLC
SNB-75 CNS = tested on: SNB-75 CNS
M14 melanoma = tested on: M14 melanoma
HCT-15 colon = tested on: HCT-15 colon
BT-549 breast = tested on: BT-549 breast
EKVX NSCLC = tested on: EKVX NSCLC
SK-OV-3 ovarian = tested on: SK-OV-3 ovarian
SW-620 colon = tested on: SW-620 colon

## CC(=O)OCC1OC(n2c3c(cc(C#N)c2=O)CCCCCC3)C(OC(C)=O)C(OC(C)=O)C1OC(C)=O (stereo not drawn)
SK-MEL-2 melanoma
  TGI: > 100 µM
U251 CNS
  TGI: > 100 µM
NCI-H460 lung
  TGI: > 100 µM
MALME-3M melanoma
  TGI: > 100 µM
OVCAR-3 ovarian
  TGI: > 100 µM
SF-539 CNS
  TGI: > 100 µM
RXF 393 renal
  TGI: > 100 µM
HL-60(TB) leukemia
  TGI: > 100 µM
NCI/ADR-RES ovarian
  TGI: > 100 µM
SF-295 CNS
  TGI: > 100 µM
HOP-62 NSCLC
  TGI: > 100 µM
OVCAR-8 ovarian
  TGI: > 100 µM
NCI-H226 lung
  TGI: > 100 µM
MOLT-4 leukemia
  TGI: > 100 µM
ACHN renal
  TGI: > 100 µM
SR leukemia
  TGI: > 100 µM
MDA-MB-231 breast
  TGI: > 100 µM
SF-268 CNS
  TGI: > 100 µM
SK-MEL-5 melanoma
  TGI: > 100 µM
MDA-N
  TGI: > 100 µM
HT29 colon
  TGI: > 100 µM
COLO 205 colon
  TGI: > 100 µM
HCT-116 colon
  TGI: > 100 µM
SN12C renal
  TGI: > 100 µM
NCI-H23 lung
  TGI: > 100 µM
HS 578T breast
  TGI: > 100 µM
K-562 leukemia
  TGI: > 100 µM
LOX IMVI melanoma
  TGI: > 100 µM
A498 renal
  TGI: > 100 µM
UO-31 renal
  TGI: > 100 µM
RPMI-8226 leukemia
  TGI: > 100 µM
OVCAR-4 ovarian
  TGI: > 100 µM
CCRF-CEM leukemia
  TGI: > 100 µM
HCC-2998 colon
  TGI: > 100 µM
PC-3 prostate
  TGI: > 100 µM
SK-MEL-28 melanoma
  TGI: > 100 µM
IGROV1 ovarian
  TGI: > 100 µM
HOP-92 NSCLC
  TGI: > 100 µM
UACC-62 melanoma
  TGI: > 100 µM
SNB-19 CNS
  TGI: > 100 µM
MDA-MB-435
  TGI: > 100 µM
MCF7 breast
  TGI: > 100 µM
CAKI-1 renal
  TGI: > 100 µM
786-0 renal
  TGI: > 100 µM
DU-145 prostate
  TGI: > 100 µM
KM12 colon
  TGI: > 100 µM
OVCAR-5 ovarian
  TGI: > 100 µM
T-47D breast
  TGI: 90.3 µM
UACC-257 melanoma
  TGI: > 100 µM
NCI-H522 lung
  TGI: > 100 µM
TK-10 renal
  TGI: > 100 µM
A549 NSCLC
  TGI: > 100 µM
SNB-75 CNS
  TGI: > 100 µM
M14 melanoma
  TGI: > 100 µM
HCT-15 colon
  TGI: > 100 µM
BT-549 breast
  TGI: > 100 µM

## Nc1nc(Cl)nc(NCc2ccccc2)n1
SK-MEL-2 melanoma
  TGI: > 100 µM
U251 CNS
  TGI: > 100 µM
NCI-H460 lung
  TGI: > 100 µM
MALME-3M melanoma
  TGI: > 100 µM
OVCAR-3 ovarian
  TGI: > 100 µM
SF-539 CNS
  TGI: > 100 µM
RXF 393 renal
  TGI: > 100 µM
HL-60(TB) leukemia
  TGI: > 100 µM
NCI/ADR-RES ovarian
  TGI: > 100 µM
SF-295 CNS
  TGI: > 100 µM
EKVX NSCLC
  TGI: > 100 µM
HOP-62 NSCLC
  TGI: > 100 µM
SK-OV-3 ovarian
  TGI: > 100 µM
OVCAR-8 ovarian
  TGI: > 100 µM
NCI-H226 lung
  TGI: > 100 µM
MOLT-4 leukemia
  TGI: > 100 µM
ACHN renal
  TGI: > 100 µM
SR leukemia
  TGI: > 100 µM
MDA-MB-231 breast
  TGI: > 100 µM
SF-268 CNS
  TGI: > 100 µM
SK-MEL-5 melanoma
  TGI: > 100 µM
MDA-N
  TGI: > 100 µM
HT29 colon
  TGI: > 100 µM
COLO 205 colon
  TGI: > 100 µM
HCT-116 colon
  TGI: > 100 µM
SN12C renal
  TGI: > 100 µM
NCI-H23 lung
  TGI: > 100 µM
HS 578T breast
  TGI: > 100 µM
K-562 leukemia
  TGI: > 100 µM
LOX IMVI melanoma
  TGI: > 100 µM
A498 renal
  TGI: > 100 µM
RPMI-8226 leukemia
  TGI: > 100 µM
OVCAR-4 ovarian
  TGI: > 100 µM
CCRF-CEM leukemia
  TGI: > 100 µM
HCC-2998 colon
  TGI: > 100 µM
PC-3 prostate
  TGI: > 100 µM
SK-MEL-28 melanoma
  TGI: > 100 µM
IGROV1 ovarian
  TGI: > 100 µM
HOP-92 NSCLC
  TGI: > 100 µM
UACC-62 melanoma
  TGI: > 100 µM
SNB-19 CNS
  TGI: > 100 µM
MDA-MB-435
  TGI: > 100 µM
MCF7 breast
  TGI: > 100 µM
CAKI-1 renal
  TGI: > 100 µM
786-0 renal
  TGI: > 100 µM
DU-145 prostate
  TGI: > 100 µM
KM12 colon
  TGI: > 100 µM
OVCAR-5 ovarian
  TGI: > 100 µM
T-47D breast
  TGI: > 100 µM
UACC-257 melanoma
  TGI: > 100 µM
TK-10 renal
  TGI: > 100 µM
A549 NSCLC
  TGI: > 100 µM
SNB-75 CNS
  TGI: > 100 µM
SW-620 colon
  TGI: > 100 µM
M14 melanoma
  TGI: > 100 µM
HCT-15 colon
  TGI: > 100 µM
BT-549 breast
  TGI: > 100 µM
